Experimental findings from article PMC5100899 (Journal of medicinal chemistry, 2016) are described below.

Values after ≈ are worked out from the molar mass of the structure shown. Where two headings read alike, the source gives them in different places. A value given as a limit tells only on which side of the number the result lay.

The subject of series [1] is CRL-8155. Briefly: CRL-8155 growth inhibition. It counts as cell-based. Conditions: Homo sapiens, CRL8155, read-out: human cells, GI50 CRL-8155.
Series [2] has as its system HepG2. Description: HepG2 growth inhibition. In kind it is cell-based. Conditions: Homo sapiens, HepG2, read-out: human cells, GI50 HepG2.
The target in series [3] is Src (Homo sapiens, UniProt P12931). Description: Src tyrosine kinase inhibition. In kind it is biochemical.
Series [4] addresses hERG (Homo sapiens, UniProt Q12809).
For series [5] the following is noted: phosphate-buffered saline, pH 6.5.
Series [6] in a line: physchem. Conditions: phosphate-buffered saline, pH 6.5, Solubility.
Series [7] in a line: in vitro. Conditions: mouse.

As usually defined, the GI50 is the concentration at which growth is held to half of that of the control. As usually defined, the IC50 is the concentration at which inhibition is half-maximal. A low value points to greater potency in that assay. What is called solubility is how much of the substance goes into solution per volume. The term EC50 denotes the midpoint of the concentration-response curve. Read a low EC50 as an effect from little substance.

Src, sequence (P12931 whole entry, species assumed): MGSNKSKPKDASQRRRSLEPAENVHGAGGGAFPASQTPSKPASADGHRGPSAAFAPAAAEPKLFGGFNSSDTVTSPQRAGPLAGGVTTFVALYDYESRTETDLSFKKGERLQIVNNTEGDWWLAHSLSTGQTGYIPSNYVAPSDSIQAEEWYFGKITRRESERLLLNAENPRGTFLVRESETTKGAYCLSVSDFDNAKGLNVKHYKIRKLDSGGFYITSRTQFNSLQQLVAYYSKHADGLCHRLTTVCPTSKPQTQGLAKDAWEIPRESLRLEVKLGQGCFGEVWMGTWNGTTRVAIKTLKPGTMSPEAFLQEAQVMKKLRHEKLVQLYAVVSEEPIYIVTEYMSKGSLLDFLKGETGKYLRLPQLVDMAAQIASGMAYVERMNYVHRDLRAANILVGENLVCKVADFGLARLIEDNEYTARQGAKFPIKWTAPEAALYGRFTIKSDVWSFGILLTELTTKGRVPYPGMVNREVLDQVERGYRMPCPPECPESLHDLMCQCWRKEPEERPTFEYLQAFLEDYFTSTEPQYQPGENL
hERG, sequence (Q12809 whole entry): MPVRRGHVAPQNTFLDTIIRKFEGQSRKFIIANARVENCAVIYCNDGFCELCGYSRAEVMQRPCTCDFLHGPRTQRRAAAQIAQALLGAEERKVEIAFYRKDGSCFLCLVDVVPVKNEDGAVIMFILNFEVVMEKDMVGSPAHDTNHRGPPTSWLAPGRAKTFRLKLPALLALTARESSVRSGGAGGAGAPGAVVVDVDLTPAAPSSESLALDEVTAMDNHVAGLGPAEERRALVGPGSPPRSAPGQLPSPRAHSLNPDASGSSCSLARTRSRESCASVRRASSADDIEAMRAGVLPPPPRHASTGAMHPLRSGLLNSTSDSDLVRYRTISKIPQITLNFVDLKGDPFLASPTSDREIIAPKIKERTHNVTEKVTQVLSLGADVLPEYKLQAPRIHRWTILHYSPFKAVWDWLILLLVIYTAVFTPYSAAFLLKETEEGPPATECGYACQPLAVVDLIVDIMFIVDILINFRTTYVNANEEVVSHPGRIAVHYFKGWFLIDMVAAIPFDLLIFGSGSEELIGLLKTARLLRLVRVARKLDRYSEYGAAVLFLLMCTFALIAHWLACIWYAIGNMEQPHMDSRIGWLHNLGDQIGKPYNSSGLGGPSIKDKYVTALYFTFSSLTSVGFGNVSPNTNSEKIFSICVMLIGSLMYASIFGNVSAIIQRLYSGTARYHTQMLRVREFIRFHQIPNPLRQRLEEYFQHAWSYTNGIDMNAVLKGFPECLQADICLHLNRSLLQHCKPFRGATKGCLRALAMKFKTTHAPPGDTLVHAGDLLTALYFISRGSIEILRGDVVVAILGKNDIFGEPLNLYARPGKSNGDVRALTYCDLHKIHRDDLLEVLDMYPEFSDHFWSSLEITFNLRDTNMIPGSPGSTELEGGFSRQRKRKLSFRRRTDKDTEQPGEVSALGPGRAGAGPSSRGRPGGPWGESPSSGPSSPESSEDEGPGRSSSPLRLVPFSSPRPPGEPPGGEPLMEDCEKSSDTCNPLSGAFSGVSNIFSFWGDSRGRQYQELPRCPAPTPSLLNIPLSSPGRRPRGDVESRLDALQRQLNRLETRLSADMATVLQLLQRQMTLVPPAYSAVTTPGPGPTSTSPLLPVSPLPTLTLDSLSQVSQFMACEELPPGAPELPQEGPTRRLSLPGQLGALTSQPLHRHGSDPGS

In the case of `CN1CCC(Cn2nc(-c3ccc4cc(OC5CCC5)ccc4c3)c3c(N)ncnc32)CC1` [Compound 11, 3-(6-Cyclobutoxynaphthalen-2-yl)-1-((1-methylpiperidin-4-yl)methyl)-1H-pyrazolo[3,4-d]pyrimidin-4-amine], the GI50 in series [1] and in series [2] was over 10 µM throughout. The compound also gave an IC50 in series [3] of over 10 µM.
In the case of `CCOc1ccc2cc(-c3nn(CC4CCN(C(C)C)CC4)c4ncnc(N)c34)ccc2c1` [Compound 7], the GI50 in series [1] and in series [2] was over 10 µM throughout. In series [3], this compound showed an IC50 of over 10 µM.
Regarding `CCOc1ccc2cc(-c3nn(CC4CN(C(C)=O)C4)c4ncnc(N)c34)ccc2c1` [Compound 9], the GI50 in series [1] and in series [2] was over 10 µM throughout.
For the compound `CCOc1ccc2cc(-c3nn(CC4CN(C)C4)c4ncnc(N)c34)ccc2c1` [Compound 6], the GI50 in series [1] and in series [2] was over 10 µM in each case. For the same compound, the IC50 in series [3] was over 10 µM.
On to `CCOc1ccc2cc(-c3nn(CC4CCN(C)CC4)c4ncnc(N)c34)ccc2n1` [Compound 17, 3-(2-Ethoxyquinolin-6-yl)-1-((1-methylpiperidin-4-yl)methyl)-1H-pyrazolo[3,4-d]pyrimidin-4-amine], for which, in series [4], the “lower activity against hERG than 1” value is given as 25 fold. This compound displayed an IC50 in series [3] of over 10 µM.
For `Nc1ncnc2c1c(-c1ccc3nc(OC4CC4)ccc3c1)nn2CC1CCOCC1` [Compound 29, 3-(2-Cyclopropoxyquinolin-6-yl)-1-((tetrahydro-2H-pyran-4-yl)methyl)-1H-pyrazolo[3,4-d]pyrimidin-4-amine], the values for the solubility in series [5] and in series [6] were 17 µM (≈ 7.08 µg/mL) and under 20 µM, respectively. Also, the GI50 in series [1] and in series [2] was over 10 µM throughout. This compound also registered an IC50 in series [3] of over 10 µM.
As for `CN1CCC(Cn2nc(-c3ccc4cc(OC5COC5)ccc4c3)c3c(N)ncnc32)CC1` [Compound 14, 1-((1-Methylpiperidin-4-yl)methyl)-3-(6-(oxetan-3-yloxy)naphthalen-2-yl)-1H-pyrazolo[3,4-d]pyrimidin-4-amine], the GI50 in series [1] and in series [2] was over 10 µM each time. Besides, the IC50 in series [3] is over 10 µM.
As to `CCOc1ccc2cc(-c3nn(CC4CCOCC4)c4ncnc(N)c34)ccc2c1` [Compound 26], the GI50 in series [1] and in series [2] was over 10 µM throughout. Also, the half-inhibitory concentration (IC50) in series [3] is over 10 µM.
Regarding `CC(C)(CO)Cn1nc(-c2ccc3nc(OCC(F)(F)F)ccc3c2)c2c(N)ncnc21` [Compound 36, 3-(4-Amino-3-(2-(2,2,2-trifluoroethoxy)quinolin-6-yl)-1H-pyrazolo[3,4-d]pyrimidin-1-yl)-2,2-dimethylpropan-1-ol], the IC50 in series [3] is over 10 µM.
In the case of `CCOc1ccc2cc(-c3nn(CC4CCOCC4)c4ncnc(N)c34)ccc2n1` [Compound 27], the GI50 in series [1] and in series [2] was over 10 µM each time. The compound further returned an IC50 in series [3] of over 10 µM.
`CC1(Cn2nc(-c3ccc4nc(OC5CC5)ccc4c3)c3c(N)ncnc32)COC1` [Compound 25, 3-(2-Cyclopropoxyquinolin-6-yl)-1-((3-methyloxetan-3-yl)methyl)-1H-pyrazolo[3,4-d]pyrimidin-4-amine]: the GI50 in series [1] and in series [2] was over 10 µM throughout. The compound further displayed an IC50 in series [3] of over 10 µM.
Turning to `Nc1ncnc2c1c(-c1ccc3cc(OC4CC4)ccc3c1)nn2CC(O)(C(F)(F)F)C(F)(F)F` [Compound 37, 2-((4-Amino-3-(6-cyclopropoxynaphthalen-2-yl)-1H-pyrazolo[3,4-d]pyrimidin-1-yl)methyl)-1,1,1,3,3,3-hexafluoropropan-2-ol], the GI50 in series [1] and in series [2] was over 10 µM in each case. Further, the IC50 in series [3] is over 10 µM.
As to `CCOc1ccc2cc(-c3nn(CC(C)(C)O)c4ncnc(N)c34)ccc2c1` [Compound 30, 1-(4-Amino-3-(6-ethoxynaphthalen-2-yl)-1H-pyrazolo[3,4-d]pyrimidin-1-yl)-2-methylpropan-2-ol], the GI50 in series [1] and in series [2] was over 10 µM each time. Besides, the IC50 in series [3] is over 10 µM.
Regarding `CC(C)Cn1nc(-c2ccc3nc(OC4CC4)ccc3c2)c2c(N)ncnc21` [Compound 23, 3-(2-Cyclopropoxyquinolin-6-yl)-1-isobutyl-1H-pyrazolo[3,4-d]pyrimidin-4-amine], the GI50 in series [1] and in series [2] was over 10 µM throughout. This compound also yielded an IC50 in series [3] of over 10 µM.
For `CN(C)CC(C)(C)Cn1nc(-c2ccc3nc(OC4CC4)ccc3c2)c2c(N)ncnc21` [Compound 20, 3-(2-Cyclopropoxyquinolin-6-yl)-1-(3-(dimethylamino)-2,2-dimethylpropyl)-1H-pyrazolo[3,4-d]pyrimidin-4-amine], the GI50 in series [1] and in series [2] was over 10 µM each time. For the same compound, in series [3], the IC50 was over 10 µM.
In turn, `CC(C)(O)Cn1nc(-c2ccc3nc(OC4CC4)ccc3c2)c2c(N)ncnc21` [Compound 33, 1-(4-Amino-3-(2-cyclopropoxyquinolin-6-yl)-1H-pyrazolo[3,4-d]pyrimidin-1-yl)-2-methylpropan-2-ol] came in with an EC50 in series [7] of 1330 nM. Moreover, the GI50 in series [1] and in series [2] was over 10 µM in each case.
Take `CN1CCC(Cn2nc(-c3ccc4cc(OC5CC5)ccc4c3)c3c(N)ncnc32)CC1` [Compound 12, 3-(6-Cyclopropoxynaphthalen-2-yl)-1-((1-methylpiperidin-4-yl)methyl)-1H-pyrazolo[3,4-d]pyrimidin-4-amine]: the GI50 in series [1] is over 10 µM. The compound also came in with an IC50 in series [3] of over 10 µM.
With `CCOc1ccc2cc(-c3nn(CC4CNC4)c4ncnc(N)c34)ccc2c1` [Compound 5], the GI50 in series [1] and in series [2] was over 10 µM each time. In series [3], this compound showed an IC50 of over 10 µM.
On to `COCCOc1ccc2cc(-c3nn(CC4CCN(C)CC4)c4ncnc(N)c34)ccc2c1` [Compound 13, 3-(6-(2-Methoxyethoxy)naphthalen-2-yl)-1-((1-methylpiperidin-4-yl)methyl)-1H-pyrazolo[3,4-d]pyrimidin-4-amine], for which the concentration for 50% growth inhibition (GI50) in series [1] and in series [2] was over 10 µM in each case. Also, in series [3], the IC50 is over 10 µM.
On to `CCOc1ccc2cc(-c3nn(CC(C)C)c4ncnc(N)c34)ccc2c1` [Compound 21, 3-(6-Ethoxynaphthalen-2-yl)-1-isobutyl-1H-pyrazolo[3,4-d]pyrimidin-4-amine], for which the concentration for 50% growth inhibition (GI50) in series [1] and in series [2] was over 10 µM each time. The same compound displayed an IC50 in series [3] of over 10 µM.
`CCOc1ccc2cc(-c3nn(CC4CCN(C(C)=O)CC4)c4ncnc(N)c34)ccc2c1` [Compound 8]: the GI50 in series [1] and in series [2] was over 10 µM each time.
On to `CN1CCC(Cn2nc(-c3ccc4cc(OCC5CC5)ccc4c3)c3c(N)ncnc32)CC1` [Compound 10, 3-(6-(Cyclopropylmethoxy)naphthalen-2-yl)-1-((1-methylpiperidin-4-yl)methyl)-1H-pyrazolo[3,4-d]pyrimidin-4-amine], for which the GI50 in series [1] and in series [2] was over 10 µM throughout. The IC50 in series [3] was over 10 µM.
For `CN1CCC(Cn2nc(-c3ccc4nc(OC5CC5)ccc4c3)c3c(N)ncnc32)CC1` [Compound 19, 3-(2-Cyclopropoxyquinolin-6-yl)-1-((1-methylpiperidin-4-yl)methyl)-1H-pyrazolo[3,4-d]pyrimidin-4-amine], in series [2], the 50% growth inhibitory concentration (GI50) was over 10 µM. The IC50 in series [3] was over 10 µM.
Regarding `CN1CCC(Cn2nc(-c3ccc4cc(OCC(C)(C)O)ccc4c3)c3c(N)ncnc32)CC1` [Compound 16, 1-(6-(4-Amino-1-((1-methylpiperidin-4-yl)methyl)-1H-pyrazolo[3,4-d]pyrimidin-3-yl)naphthalen-2-yloxy)-2-methylpropan-2-ol], the GI50 in series [1] and in series [2] was over 10 µM each time. The compound further had an IC50 in series [3] of over 10 µM.
In the case of `CC(C)Cn1nc(-c2ccc3cc(OC4CC4)ccc3c2)c2c(N)ncnc21` [Compound 22, 3-(6-Cyclopropoxynaphthalen-2-yl)-1-isobutyl-1H-pyrazolo[3,4-d]pyrimidin-4-amine], the GI50 in series [1] was over 10 µM.
With `CC1(Cn2nc(-c3ccc4cc(OC5CC5)ccc4c3)c3c(N)ncnc32)COC1` [Compound 24, 3-(6-Cyclopropoxynaphthalen-2-yl)-1-((3-methyloxetan-3-yl)methyl)-1H-pyrazolo[3,4-d]pyrimidin-4-amine], the GI50 in series [1] and in series [2] was over 10 µM throughout. The same compound showed an IC50 in series [3] of over 10 µM.
As for `Nc1ncnc2c1c(-c1ccc3cc(OC4CC4)ccc3c1)nn2CC1CCOCC1` [Compound 28, 3-(6-Cyclopropoxynaphthalen-2-yl)-1-((tetrahydro-2H-pyran-4-yl)methyl)-1H-pyrazolo[3,4-d]pyrimidin-4-amine], the GI50 in series [1] and in series [2] was over 10 µM in each case.
With `CCOc1ccc2cc(-c3nn(CC(C)(C)O)c4ncnc(N)c34)ccc2n1` [Compound 31, 1-(4-Amino-3-(2-ethoxyquinolin-6-yl)-1H-pyrazolo[3,4-d]pyrimidin-1-yl)-2-methylpropan-2-ol], the GI50 in series [1] and in series [2] was over 10 µM throughout. In addition, the IC50 in series [3] was over 10 µM.
